Counter-ions that a name gives are not always drawn. Like-named read-outs stand apart in the source and are kept apart here.
Tested on: venous thrombosis
Assay: venous thrombosis test in the rat (venous stasis under hypercoagulation with factor Xa, Wessler technique)
Assay type: in vivo
Conditions: Wistar male rats
Protocol: The antithrombotic activity of the compounds according to the invention was studied in vivo in the rat by means of a test that reproduces a venous thrombosis.
The venous thrombosis was induced according to the protocol described in Thromb. Haemost., 1992, 67(1), 176-179. The intravenous or oral activity was studied according to the following operating protocol:
The experiments are performed on non-fasted Wistar male rats weighing 250 to 280 g, divided into groups of 10 animals each. The test products are administered either orally (tubage) dissolved or suspended in isotonic solution, or by intravenous injection dissolved in isotonic solution or in a PEG 400/water mixture. The concentration of the compounds is calculated so that the amount of solution absorbed is 2 ml/kg by oral administration and 1 ml/kg by intravenous injection. A thrombosis is induced at a time T (0.5, 2, 4 or 8 hours) after administration of the product, and the thrombus formed is removed and weighed. To induce this thrombosis, a venous stasis is created under hypercoagulation according to the technique described by WESSLER (J Applied Physiol., 1959, 943-946), the hypercoagulating agent used being a solution of activated factor X (Xa) having a concentration of 7.5 nKat/kg, supplied by Biogenic (Montpellier). The venous stasis is effected exactly 15 seconds after injection of the hypercoagulating agent. The activity of the test compounds was checked at different doses after they had been administered either orally (p.o.) or intravenously (i.v.). The thrombosis was induced 2 hours or 4 hours after oral administration of the compound and 2 hours after intravenous administration of the compound.

[1] = Rattus norvegicus, iv, 2 h, intravenous, thrombosis induced 2 h after administration, read-out: Activity % (percentage inhibition of thrombus formation)
[2] = Rattus norvegicus, po, 2 h, oral, thrombosis induced 2 h after administration, read-out: Activity % (percentage inhibition of thrombus formation)
[3] = Rattus norvegicus, po, 4 h, oral, thrombosis induced 4 h after administration, read-out: Activity % (percentage inhibition of thrombus formation)
[4] = intravenous, dose 2.5 mg/kg, thrombosis induced 2 h after administration

COC(=O)O[C@@H]1[C@@H](OC(=O)OC)[C@H](OC(=O)OC)CS[C@H]1Oc1cccnc1 [Example 31B, 3-Pyridinyl 2,3,4-Tris-O-(Methoxycarbonyl)-5-Thio-β-D-Xylopyranoside Methanesulfonate]
inhibition in vivo at 5 mg/kg [1]: 88% | inhibition in vivo at 8 mg/kg (Rattus norvegicus, po, 4 h, oral, dose 8 mg/kg, thrombosis induced 4 h after administration, read-out: Activity % (percentage inhibition of thrombus formation)): 94%

CC(=O)O[C@@H]1[C@@H](OC(C)=O)[C@H](OC(C)=O)CS[C@H]1Oc1cccnc1Cl [Example 36, 2-Chloro-3-Pyridinyl 2,3,4-Tri-O-Acetyl-5-Thio-β-D-Xylopyranoside]
inhibition in vivo at 6 mg/kg [2]: 91%

O[C@@H]1[C@@H](O)[C@H](Oc2cncc(Cl)c2)SC[C@H]1O [Example 18, 5-Chloro-3-Pyridinyl 5-Thio-β-D-Xylopyranoside]
inhibition in vivo at 3 mg/kg [3]: 46%

O[C@@H]1[C@@H](O)[C@H](Oc2cccnc2Cl)SC[C@H]1O [Example 37, 2-Chloro-3-Pyridinyl 5-Thio-β-D-Xylopyranoside]
inhibition in vivo at 6 mg/kg [2]: 96%

CC(=O)O[C@@H]1[C@@H](OC(C)=O)[C@H](OC(C)=O)CS[C@H]1Oc1cccnc1 [Example 1A, 3-Pyridinyl 2,3,4-tri-O-acetyl-5-thio-β-D-Xylopyranoside Methanesulfonate]
inhibition in vivo at 4 mg/kg [1]: 83% | inhibition in vivo at 6 mg/kg [3]: 51%

COC(=O)O[C@@H]1[C@@H](OC(=O)OC)[C@H](OC(=O)OC)CS[C@H]1Oc1cccnc1 [Example 31A, 3-Pyridinyl 2,3,4-Tris-O-(Methoxycarbonyl)-5-Thio-β-D-Xylopyranoside Hydrochloride]
inhibition in vivo at 5.6 mg/kg (Rattus norvegicus, po, 4 h, oral, dose 5.6 mg/kg, thrombosis induced 4 h after administration, read-out: Activity % (percentage inhibition of thrombus formation)): 63%

O[C@@H]1[C@@H](O)[C@H](Oc2cncc(F)c2)SC[C@H]1O [Example 49, 5-Fluoro-3-Pyridinyl 5-Thio-β-D-Xylopyranoside]
inhibition in vivo at 6 mg/kg [2]: 90%

O[C@@H]1[C@@H](O)[C@H](Oc2ccc(C(F)(F)F)nc2)SC[C@H]1O [Example 41, 6-(Trifluoromethyl)-3-Pyridinyl 5-Thio-β-D-Xylopyranoside]
inhibition in vivo at 6 mg/kg [2]: 97%

CCCC(=O)O[C@@H]1[C@@H](OC(=O)CCC)[C@H](OC(=O)CCC)CS[C@H]1Oc1cccnc1 [Example 93, 3-Pyridinyl 2,3,4-Tri-O-Butanoyl-5-Thio-β-D-Xylopyranoside]
inhibition in vivo at 6 mg/kg [2]: 81%

O[C@@H]1[C@@H](O)[C@H](Oc2cccnc2)SC[C@H]1O [Example 2, 3-Pyridinyl 5-Thio-β-D-Xylopyranoside]
inhibition in vivo at 2.5 mg/kg (Rattus norvegicus, iv, 2 h, intravenous, dose 2.5 mg/kg, thrombosis induced 2 h after administration, read-out: Activity % (percentage inhibition of thrombus formation)): 72% | inhibition in vivo at 1.5 mg/kg (Rattus norvegicus, po, 4 h, oral, dose 1.5 mg/kg, thrombosis induced 4 h after administration, read-out: Activity % (percentage inhibition of thrombus formation)): 67% | inhibition in vivo at 3 mg/kg [3]: 91%

CS(=O)(=O)O.O[C@@H]1[C@@H](O)[C@H](Oc2cccnc2)SC[C@H]1O [Example 2A, 3-Pyridinyl 5-Thio-β-D-Xylopyranoside Methanesulfonate]
inhibition in vivo at 5 mg/kg [1]: 94% | inhibition in vivo at 4.2 mg/kg (Rattus norvegicus, po, 2 h, oral, dose 4.2 mg/kg, thrombosis induced 2 h after administration, read-out: Activity % (percentage inhibition of thrombus formation)): 96% | Activity % (percentage inhibition of thrombus formation) [4]: 68%

N#Cc1ncccc1O[C@@H]1SC[C@@H](O)[C@H](O)[C@H]1O [Example 20, 2-Cyano-3-Pyridinyl 5-Thio-β-D-Xylopyranoside]
inhibition in vivo at 3 mg/kg [3]: 50%

Cl.O[C@@H]1[C@@H](O)[C@H](Oc2cccnc2)SC[C@H]1O [Example 2C, 3-Pyridinyl 5-Thio-β-D-Xylopyranoside Hydrochloride]
inhibition in vivo at 4 mg/kg [1]: 95% | inhibition in vivo at 6 mg/kg [3]: 55% | Activity % (percentage inhibition of thrombus formation) [4]: 72%

Cc1ncccc1O[C@@H]1SC[C@@H](O)[C@H](O)[C@H]1O [Example 12, 2-Methyl-3-Pyridinyl 5-Thio-β-D-Xylopyranoside]
inhibition in vivo at 3 mg/kg [3]: 52%

— patent US7470671B2, “Thioxylose compounds, preparation method thereof, pharmaceutical compositions containing same and use thereof in therapeutics” (Laboratoire Fournier, priority 2003, dated 2008)
